# Laboratory results from the supplement of paper PMC10307832.
# Tests used:
# Assay in all cases: relative viability (nuclei count vs DMSO), 5 days (fraction); higher = more cells survive
# [1] = compound: CC1=CC(=CC=C1)NC2=NC(=CS2)C3=CC=NC=C3 + CCNC(=O)c1noc(-c2cc(C(C)C)c(O)cc2O)c1-c1ccc(CN2CCOCC2)cc1 [Luminespib] (partner 0.01 µM)
# In short: (§1)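 Lung cancer cell lines were pin-tool dosed in 1536-well plates on the day after seeding, with either a lone drug or a fixed anchor-drug dose plus five library-drug doses (not always all listed) in √10 steps. Nuclei were counted on 4× images after 5 days. Relative viability is the ratio of treated-well to vehicle-well nuclei counts, with each value a median of duplicate plates.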
# [2] = compound: CC1=CC(=CC=C1)NC2=NC(=CS2)C3=CC=NC=C3 + N=C(N)NC(=N)NCCc1ccccc1 [Phenformin] (partner 250 µM)
# In short: as §1
# [3] = compound: CC1=CC(=CC=C1)NC2=NC(=CS2)C3=CC=NC=C3 + Nc1ncn([C@H]2C[C@H](O)[C@@H](CO)O2)c(=O)n1 [Decitabine] (partner 2 µM)
# In short: as §1
# [4] = compound: Cc1ccc(NC(=O)c2ccc(CN3CCN(C)CC3)cc2)cc1Nc1nc(-c2cccnc2)cs1 [Masitinib] + C[C@]1(O)C[C@@H](c2nc(-c3ccc4ccc(-c5ccccc5)nc4c3)c3c(N)nccn32)C1 [Linsitinib] (partner 1 µM)
# In short: as §1
Cell Line,relative viability ([1]; first compound 0.253 µM),relative viability ([1]; first compound 0.8 µM),relative viability ([1]; first compound 8 µM),relative viability ([2]; first compound 0.253 µM),relative viability ([2]; first compound 0.8 µM),relative viability ([2]; first compound 8 µM),relative viability ([3]; first compound 0.08 µM),relative viability ([3]; first compound 0.253 µM),relative viability ([3]; first compound 0.8 µM),relative viability ([3]; first compound 2.53 µM),relative viability ([3]; first compound 8 µM),relative viability ([4]; first compound 0.01 µM),relative viability ([4]; first compound 0.03162 µM),relative viability ([4]; first compound 0.1 µM),relative viability ([4]; first compound 0.3162 µM),relative viability ([4]; first compound 1 µM),relative viability ([1]; first compound 0.08 µM),relative viability ([1]; first compound 2.53 µM),relative viability ([2]; first compound 0.08 µM),relative viability ([2]; first compound 2.53 µM)
LK-2,0.161,0.207,0.183,0.365,0.584,0.44,0.298,0.273,0.304,0.204,0.563,0.511,0.573,0.618,0.649,0.812,,,,
NCI-H2228,0.159,0.194,0.17,0.35,0.266,0.332,,,,,,0.703,0.58,0.609,0.807,0.52,0.107,0.164,0.265,0.313
NCI-H322M,0.893,0.924,0.982,0.726,0.788,0.797,0.736,0.703,0.67,0.706,0.691,0.975,0.736,0.91,0.681,0.912,0.76,0.961,0.63,0.854
NCI-H1993,0.545,0.546,0.7,0.601,0.547,0.48,0.565,0.561,0.483,0.485,0.502,0.732,,0.733,0.659,0.665,0.767,0.624,0.445,0.529
NCI-H2170,0.701,0.775,0.48,0.436,0.431,0.397,0.426,0.399,0.437,0.43,0.361,,,,,,0.624,0.527,0.396,0.4
LXF-289,0.649,0.573,0.69,0.522,0.514,0.487,0.353,0.383,0.391,0.375,0.363,0.804,0.999,0.901,0.981,0.944,0.655,0.646,0.494,0.487
NCI-H2405,0.589,0.63,0.64,0.352,0.347,0.434,0.694,0.678,0.686,,0.671,0.96,1.01,0.945,0.882,0.9,0.583,0.666,0.344,0.411
NCI-H2023,0.706,0.889,0.427,0.33,0.424,0.351,0.239,0.223,0.245,0.203,0.216,0.597,0.681,0.703,0.613,0.597,0.716,0.659,0.41,0.423
HCC-15,0.299,0.475,0.274,0.462,0.483,0.438,0.621,0.662,0.58,0.582,0.625,0.8,0.826,0.941,0.863,0.952,0.386,0.31,0.424,0.501
HCC-78,,,,0.628,0.527,0.75,0.727,0.613,0.614,0.613,0.661,0.417,0.423,0.55,0.557,0.486,,,,0.631
NCI-H1299,,,,,,,,,,,,0.778,1.02,1.06,1.09,0.879,,,,
ChaGo-K-1,0.605,0.57,0.372,0.439,0.5,0.464,0.528,0.528,0.519,0.522,0.499,,,,,,0.525,0.589,0.445,0.409
NCI-H1563,0.546,0.546,0.541,0.634,0.691,0.657,,,,,,1.17,1.09,1.19,1.26,1.17,0.488,0.506,0.725,0.733
NCI-H1703,,,,,,,,,,,,0.667,1.02,0.479,0.23,0.187,,,,
NCI-H1648,,,,,,,0.345,0.42,0.496,0.356,0.376,,,,,,,,,
NCI-H1650,0.181,0.222,0.186,0.328,0.527,0.245,0.384,0.38,0.478,0.408,0.378,,,,,,0.214,0.194,0.419,0.344
A549,,,,0.179,0.15,0.235,0.281,0.173,0.284,0.275,0.256,0.576,0.602,0.667,0.681,0.545,,,0.179,0.169
NCI-H522,1.07,1.34,1.28,0.687,0.654,0.655,0.702,0.63,0.708,0.801,0.677,,,,,,1.25,,0.682,0.613
NCI-H1623,0.453,0.369,0.391,0.585,0.564,0.565,,,,,,,,,,,0.496,0.371,0.577,0.513
SW 900,0.178,0.172,0.178,0.446,0.673,0.532,0.443,0.381,0.353,0.389,0.441,,,,,,0.186,0.188,0.555,0.461
IA-LM,,,,,,,,,,,,0.365,0.541,0.557,0.504,0.451,,,,
CAL-12T,0.355,0.335,0.29,0.518,0.604,0.516,,,,,,0.769,0.751,0.94,0.904,0.805,0.399,0.513,0.513,0.537
EBC-1,,,,,,,,,,,,0.685,0.753,1.21,0.857,0.588,,,,
